Values quoted from earlier work as cited in publication PMC2840068 (Vision research, 2009).

B1: ranibizumab: anti-VEGF antibody (ranibizumab) (antibody, chains of the INN, looked up, V domains shown)
VH: EVQLVESGGGLVQPGGSLRLSCAASGYDFTHYGMNWVRQAPGKGLEWVGWINTYTGEPTYAADFKRRFTFSLDTSKSTAYLQMNSLRAEDTAVYYCAKYPYYYGTSHWYFDVWGQGTLVTVSS
VL: DIQLTQSPSSLSASVGDRVTITCSASQDISNYLNWYQQKPGKAPKVLIYFTSSLHSGVPSRFSGSGSGTDFTLTISSLQPEDFATYYCQQYSTVPWTFGQGTKVEIK

Key:
[1] = system: VEGF; conditions: clinical trials in AMD patients; ref Gragoudas et al., 2004
[2] = system: VEGF; conditions: ref Chang et al., 2007, Rosenfeld et al., 2006

Row | Molecule | therapeutic dose response [1] | AMD patients’ vision [2]
1 | pegaptanib | inverse therapeutic dose response | –
2 | B1 | – | improvement of AMD patients’ vision
